Reference: article PMC6733935, “A convenient and efficient total solid-phase synthesis of DOTA-functionalized tumor-targeting peptides for PET imaging of cancer” (EJNMMI Research, 2019)
Like-named read-outs stand apart in the source and are kept apart here. Square brackets hold non-standard residues; d marks the D form. Peptide text beside a SMILES is read from it. * marks the point of attachment. DOTA = O=C(O)CN1CCN(CC(=O)O)CCN(CC(=O)*)CCN(CC(=O)O)CC1; Cha = N[C@@H](CC1CCCCC1)C(=O)O; Nle = CCCC[C@H](N)C(=O)O; Ahx = NCCCCCC(=O)O

Key:
[1] = system: PC3 prostate carcinoma xenografts; format: in vivo, nude mice; details: for uptake in the PC3 tumors / tumor-to-blood ratio / tumor-to-muscle ratio: nude mice bearing PC3 xenografts
Method: BN/GRP receptor-positive MDA-MB-231 and PC3 cell lines (American Type Culture Collection, Rockville, USA) were grown as monolayers at 37 °C in a humidified atmosphere containing RPMI-1640 culture media with 10% fetal bovine serum (FBS) in tissue culture flasks. Twenty-four hours prior to conducting the tumor implantation, the media was replaced with RPMI-1640/10% FBS. The cells were grown to 80-90% confluency and harvested by trypsinization. After centrifugation, about 50 million cells were suspended in 1 mL media for implantation into mice. To prepare cells for inoculation, MDA-MB-231 or PC3 cancer cells with media were centrifuged, the media decanted, and the cell pellet was mixed with phosphate-buffered saline (PBS) to reach a concentration of approximately 5 million cells per 100 μL PBS.
Based on encouraging biological and tumor-targeting properties, ^68Ga-DOTA(cyclen)-Ahx-BN was further tested in nude mice bearing PC3 prostate carcinoma xenografts. […] Kidney was the only major organ which retained most of the radioactivity (up to 6% ID/g) after 2 h p.i. […] The tumor-to-blood and tumor-to-muscle ratios were 3.27 and 12.62 at 1 h and 2.85 and 11.40 at 2 h p.i., respectively (data not shown).

MDA-MB-231 tumor = assay: NanoPET/CT imaging of MDA-MB-231 tumor-bearing nude mice; format: in vivo; details: 60 min p.i.
Method: PET/CT scans were performed using a preclinical NanoPET/CT scanner (Mediso, Hungary) on MDA-MB-231 tumor-bearing ~ 8-week-ld female nude mice. Mice (19–23 g) were anesthetized prior to the imaging with a mixture of (100 μL, subcutaneous injection) ketamine and xylazine. One hour after the intravenous injection of radiolabeled BN peptide (100 μL peptide, 100–150 μCi, total peptide dose ~ 100 ng) via the tail vein into the anesthetized mouse, each mouse was placed in the camera in prone position and static image was acquired for 30 min. The acquired raw data in these imaging studies were reconstructed to visible image form using Interveiw Fusion software (Mediso, Hungary).

CCCC[C@H](NC(=O)[C@H](Cc1c[nH]cn1)NC(=O)[C@H](CC1CCCCC1)NC(=O)[C@@H](NC(=O)[C@H](C)NC(=O)[C@H](Cc1c[nH]c2ccccc12)NC(=O)[C@H](CCC(N)=O)NC(=O)[C@H](CS)NC(=O)CNC(=O)CNC(=O)CCCCCNC(=O)CN1CCN(CC(=O)O)CCN(CC(=O)O)CCN(CC(=O)O)CC1)C(C)C)C(=O)N[C@@H](CCSC)C(N)=O [^68Ga-DOTA-Ahx-BN Cyclen, metal not drawn] ({DOTA-Ahx}-GGCQWAV[Cha]H[Nle]M-NH2)
radioactivity retained in Kidney ([1]; mouse, in vivo): up to 6 % ID/g
uptake in the PC3 tumors ([1]; 1 h p.i.): 2.05 ± 0.54 % ID/g
tumor-to-blood ratio ([1]; 1 h p.i. (data not shown)): 3.27
tumor-to-muscle ratio ([1]; 1 h p.i. (data not shown)): 12.62
uptake in the PC3 tumors ([1]; 2 h p.i.): 1.34 ± 0.22 % ID/g
tumor-to-blood ratio ([1]; 2 h p.i. (data not shown)): 2.85
tumor-to-muscle ratio ([1]; 2 h p.i. (data not shown)): 11.40
Tumor visibility in PET image under blocking condition (MDA-MB-231 tumor; in the presence of 300 μg cold BN peptide): hardly detectable
Tumor visibility in PET image (MDA-MB-231 tumor; ~100 ng, ~100 μCi, unblocked): clearly visible
